Data from article PMC9322082, “Improvement in Solubility–Permeability Interplay of Psoralens from Brosimum gaudichaudii Plant Extract upon Complexation with Hydroxypropyl-β-cyclodextrin” (Molecules, 2022).
In brackets after ≈: the same amount, converted by molar mass. Several values for one entry are separate records, joined by “and”; a condition that tells them apart may be missing. Identical values can stand only once. Like-named read-outs stand apart in the source and are kept apart here. Each block holds one molecule with its values, some of them ahead of it.

Experiments:
jejunal tissue = assay: Viability of intestinal tissue segments by TEER; assay type: in vitro ADME, rat
Protocol: The effects of HP-β-CD on the viability of intestinal tissue segments mounted in the MTS-Snapwell system was evaluated during incubation time (120 min) at 37 °C. For this purpose, TEER values in the presence and absence of 20% (w/w) HP-β-CD were compared.
(§1) Integrity of intestinal tissue segments mounted in the MTS-Snapwell system was assessed by measuring the transepithelial electrical resistance (TEER) using the KRB solution at 37 °C as the conducting medium. Viable intestinal segments (>30 Ω·cm^2) were mounted on the permeation apparatus and subjected to a preincubation period (30 min) under a controlled atmosphere (95% O2 and 5% CO2) before starting the experiments.

rat jejunum [1] = assay: Ex vivo rat jejunal permeability (MTS-Snapwell system, A–B); assay type: in vitro ADME
Protocol: (§2) Study protocol for female Wistar rats (12–14 weeks old) was approved by the Ethics Committee on Animal Use (#066/15) at the Federal University of Goiás, Goiás, Brazil. One week before starting the experiment, all animals were acclimatized at controlled conditions with regulated access to a standard food (22 ± 2 °C, 12-h light/dark cycle). After this, they fasted for 12 h with free access to water. All animals (body weight = 215 ± 12 g) were then anesthetized using a mixture of ketamine/xylazine (90.0/7.5 mg/kg). Rat jejunum was removed and immediately placed into an ice-cold KRB solution. The jejunum (20 mm) seromuscular layer was carefully stripped off from the membrane and mounted in the MTS-Snapwell system. Next, unidirectional drug transport was measured from the apical to basolateral side (A–B).
(§3) Sample aliquots (400 µL) were placed in the donor compartment (apical side).
(§4) Drug transport was measured by collecting samples (500 µL) from the receiver chamber (basolateral side) at 0, 20, 30, 40, 60, 90, and 120 min. Receiver samples were replaced with equal volume of fresh KRB solution (37 °C). The system was maintained on a plate shaker (60 rpm) inside a humidified incubator (37 ± 0.5 °C) in a controlled atmosphere (95% O2, and 5% CO2), before and during the transport experiment. Samples were analyzed by the HPLC-DAD validated method.
(§5) The change in donor and receiver concentrations was taken into consideration when the apparent permeability coefficient (Papp) was calculated using to the following equation:Papp = dQ/dt(1/CD A)(3) where dQ/dt is the appearance rate of the drug in the receiver compartment, CD is the concentration of the drug in the donor chamber at each sample interval, and A is the surface area (0.1 cm^2) of the tissue segment. The initial concentration of the drug in the donor compartment was determined experimentally, and donor concentrations at each time point were obtained by the calculation of the mass balance.
as §1

[2] = as above; assay type: in vitro ADME; details: female, Wistar, rat
Protocol: as §2, §3, §4, §5, §1

[3] = as above; assay type: in vitro ADME; details: female, Wistar, pH 7.4, pure compound, KRB, without stirring (0 rpm)
rat jejunum [4] = tested on: rat jejunum; parameters: method as in PMID 32942105; details: 0.58 mM; BCS low/high permeability class boundary marker; n = 41; cited from earlier work
[5] = Preliminary in vivo studies in rats (plasma AUC); details: rat, n = 3
[6] = Phase solubility studies with HP-β-CD in KRB buffer; assay type: physicochemical; details: for solubility at 7 d: KRB buffer, 37 °C, thermodynamic from solid
Protocol: Phase solubility studies were performed in KRB buffer solutions (pH 7.4), as described by Higuchi and Connors. […] Samples were centrifuged (4000 rpm, 5 min) and filtered (Nylon filter; 0.45 µm) prior to the psoralens content analysis by the HPLC-DAD validated method.
The complexation efficiency (CE) was determined by using the slope of the linear phase solubility diagram as follows:CE = slope/(1 − slope)(2)

[7] = pH 7.4, marker in EBGT plant extract, HP-β-CD 70 mM
[8] = pH 7.4, marker in EBGT plant extract, KRB solution without HP-β-CD
[9] = pH 7.4, pure compound, HP-β-CD 70 mM
[10] = pH 7.4, pure compound, KRB solution without HP-β-CD, stirring 60 rpm, 120 min

SMILES: CC(O)COC[C@H]1O[C@@H]2O[C@H]3[C@H](O)[C@@H](O)[C@@H](O[C@H]4[C@H](O)[C@@H](O)[C@@H](O[C@H]5[C@H](O)[C@@H](O)[C@@H](O[C@H]6[C@H](O)[C@@H](O)[C@@H](O[C@H]7[C@H](O)[C@@H](O)[C@@H](O[C@H]8[C@H](O)[C@@H](O)[C@@H](O[C@H]1[C@H](O)[C@H]2O)O[C@@H]8COCC(C)O)O[C@@H]7COCC(C)O)O[C@@H]6COCC(C)O)O[C@@H]5COCC(C)O)O[C@@H]4COCC(C)O)O[C@@H]3COCC(C)O (stereo partly drawn) [HP-β-CD, 2-hydroxypropyl-β-cyclodextrin]
TEER after incubation (jejunal tissue; 20% (w/w) HP-β-CD, 120 min, 37 °C, n = 16, control KRB 32 ± 9, p = 0.99): 29 ± 7 Ω·cm^2 | effect on viability of jejunal tissue (jejunal tissue; HP-β-CD at high concentration (20% w/w)): does not affect the viability of jejunal tissue

permeability rate decrease after adding HP-β-CD (rat jejunum [1]; EBGT markers): 4 fold | permeability rate decrease after adding HP-β-CD (rat jejunum [1]; pure standards): 6 fold | Papp at 120 min [2, 7]: 3.86 ± 1.81 ×10⁻⁶ cm/s | Papp at 120 min [2, 8]: 17.6 ± 1.35 ×10⁻⁶ cm/s | Papp at 120 min [2, 9]: 3.82 ± 0.62 ×10⁻⁶ cm/s | Papp at 120 min [2, 10]: 21.4 ± 3.81 ×10⁻⁶ cm/s | Papp at 120 min [3]: 20.5 ± 2.82 ×10⁻⁶ cm/s
SMILES: O=c1ccc2cc3ccoc3cc2o1 [PSO, Psoralen]

SMILES: COCCc1ccc(OCC(O)CNC(C)C)cc1 (centres unmarked) [metoprolol]
Papp (rat jejunum [4]): 6.21 ± 2.63 × 10^−6 cm/s

AUC ([5]; EBGT in HP-β-CD 70 mM solution, dose 0.12 mg/kg): 377 ng·h/mL | AUC ([5]; EBGT uncomplexed, dose 1.5 g/kg): 516 ng·h/mL | Kc fold lower in EBGT compared to pure compound ([6]; EBGT marker vs pure compound): ~1.8 fold | solubility at 7 d ([6]; pH 7.4, aqueous buffer, marker in EBGT plant extract (9.0 mg/mL), KRB pH 7.4, 37 °C, absence of HP-β-CD, read-out: intrinsic solubility (S0) in EBGT): 38 ± 2 µM (≈ 8.22 µg/mL) | solubility at 7 d ([6]; pH 7.4, aqueous buffer, pure compound, KRB buffer pH 7.4, 37 °C, absence of HP-β-CD, read-out: intrinsic solubility (S0)): 32 ± 1 µM (≈ 6.92 µg/mL) | solubility at 7 d ([6]; pH 7.4, aqueous with cosolvent or surfactant or cyclodextrin, aqueous solubility with 70 mM HP-β-CD in plant extract, marker in EBGT, 70 mM HP-β-CD, KRB pH 7.4, 37 °C): 720 ± 40 µM (≈ 156 µg/mL) | solubility at 7 d ([6]; pH 7.4, aqueous with cosolvent or surfactant or cyclodextrin, aqueous solubility with 70 mM HP-β-CD, pure compound, 70 mM HP-β-CD, KRB pH 7.4, 37 °C): 930 ± 7 µM (≈ 201 µg/mL) | complexation efficiency (CE) with HP-β-CD in EBGT ([6]; marker in EBGT plant extract): 0.010 ± 0.001 | intrinsic solubility (S0) in EBGT ([6]; marker in EBGT plant extract (9.0 mg/mL), KRB pH 7.4, 37 °C, absence of HP-β-CD): 40 ± 2 µM | Kc (stability constant) with HP-β-CD in EBGT ([6]; marker in EBGT plant extract, KRB pH 7.4, 37 °C): 251.2 ± 1.4 M⁻¹ | solubility increase ([6]; marker in EBGT, 70 mM HP-β-CD vs no HP-β-CD): 18 fold | complexation efficiency (CE) with HP-β-CD ([6]; pure compound): 0.014 ± 0.001 | phase solubility diagram profile (Higuchi-Connors) ([6]; pure compound with HP-β-CD, indicates 1:1 complex): AL type | intrinsic solubility (S0) ([6]; pure compound, KRB buffer pH 7.4, 37 °C, absence of HP-β-CD): 30 ± 1 µM | Kc (stability constant) of HP-β-CD inclusion complex ([6]; pure compound, KRB pH 7.4, 37 °C, 1:1 complex): 449.9 ± 16.6 M⁻¹ and < 500 M⁻¹ | permeability rate decrease after adding HP-β-CD (rat jejunum [1]; EBGT markers): 4 fold | permeability rate decrease after adding HP-β-CD (rat jejunum [1]; pure standards): 6 fold | Papp at 120 min [2, 7]: 3.04 ± 1.19 ×10⁻⁶ cm/s | Papp at 120 min [2, 8]: 10.7 ± 1.73 ×10⁻⁶ cm/s | Papp at 120 min [2, 9]: 2.05 ± 0.81 ×10⁻⁶ cm/s | Papp at 120 min [2, 10]: 11.2 ± 3.28 ×10⁻⁶ cm/s | Papp at 120 min [3]: 7.8 ± 1.91 ×10⁻⁶ cm/s
SMILES: COc1c2ccoc2cc2oc(=O)ccc12 [5-MOP, 5-methoxypsoralen]
